{"source": "patent US20100113549A1", "about": "“PYRROLIDINE COMPOUNDS” (ISIS INNOVATION LTD., priority 2004, published 2010)", "key": {"[1]": {"molecular_target": "T1, glucosylceramide synthase (GCS) (Homo sapiens, UniProt Q16739)", "T1 construct": "assay was conducted using HL-60 cell microsomes as described in the literature; endogenous in cells; host or cells: HL-60 cell microsomes", "T1 sequence (Q16739 1-394)": "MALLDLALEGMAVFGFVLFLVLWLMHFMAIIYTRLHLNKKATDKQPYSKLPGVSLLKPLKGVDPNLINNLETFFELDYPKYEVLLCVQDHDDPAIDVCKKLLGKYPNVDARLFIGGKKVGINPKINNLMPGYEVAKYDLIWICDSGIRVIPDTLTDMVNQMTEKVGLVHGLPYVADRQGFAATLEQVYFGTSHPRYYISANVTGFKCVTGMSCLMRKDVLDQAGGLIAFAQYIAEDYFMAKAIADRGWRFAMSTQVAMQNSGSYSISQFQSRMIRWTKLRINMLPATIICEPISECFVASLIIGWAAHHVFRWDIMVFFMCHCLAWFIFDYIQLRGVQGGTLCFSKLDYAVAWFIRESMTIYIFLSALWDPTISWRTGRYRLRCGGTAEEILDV", "experiment": "Glucosylceramide synthase assay using HL-60 cell microsomes", "assay_type": "biochemical", "conditions": "read-out: IC50 as GCS inhibitors", "experimental": "Glucosylceramide synthase [UDP-glucose N-acyl-sphingosine glucosyltransferase (EC 2.4.1.80)] assay was conducted using HL-60 cell microsomes as described in the literature.^iv\nAll inhibitors were screened at a concentration of 100 μM against glycosidases and 50 μM against glucosylceramide synthase; all assays were recorded in duplicate."}, "[2]": {"tested_on": "bovine diarrhoea virus (BVDV)", "experiment": "BVDV antiviral assay in MDBK cells, plaque assay of secreted virus", "assay_type": "cell-based", "conditions": "Bovine viral diarrhea virus isolates and strains; MOI=0.5, MDBK cells; read-out: IC50 against BVDV", "experimental": "Madin-Darby bovine kidney cells (MDBK) were grown in DMEM/F12 (purchased from Gibco BRL) supplemented with 10% heat-inactivated horse serum (Gibco BRL). The cytopathic NADL strain of bovine viral diarrhoea virus (BVDV) (kindly provided by Dr. Ruben Donis, University of Nebraska) stock was prepared as previously described.^viii For antiviral activity testing MDBK cells were plated into 24 well plates 24 hours before virus infection. Cells were infected with BVDV at moi=0.5 for 1 hour in 100 μL media with occasional rocking of the plate. The inocula were washed twice with media and regular media were added with 100 μM of the test compound. After 24 hours, the supernatant media were saved. Secreted viruses in the media were titred on new MDBK cells by standard plaque assay. Toxicity of the compounds was determined by examining the tissue culture cells after the 24 hour treatment."}, "[3]": {"tested_on": "bovine diarrhoea virus (BVDV)", "conditions": "MOI=0.1, literature (ref 16); read-out: IC50 against BVDV; cited from earlier work"}}, "note": "Like-named read-outs stand apart in the source and are kept apart here."}
{"compound": "1-Butyl-2,3-trans-2-(1-pentylcarbamoyl)-3,4-cis-O-isopropylidene-pyrrolidine [compound 10]", "values": [{"measurement": "IC50", "setting": "[1]", "result": 117, "unit": "µM"}]}
{"compound": "CC(C)(C)CC(C)(C)NC(=O)C1[C@H](O)[C@@H](O)CN1C(=O)c1ccccc1", "note": "(stereo partly shown) [9iiA]", "values": [{"measurement": "IC50", "setting": "[2]", "result": 25, "unit": "µM"}]}
{"compound": "CCCC(C)NC(=O)C1[C@H](O)[C@@H](O)CN1C(=O)c1cccc(N(C)C)c1", "note": "(stereo partly shown) [9viiG]", "values": [{"measurement": "IC50", "setting": "[2]", "result": 30, "unit": "µM"}]}
{"compound": "CC(C)NC(=O)C1[C@H](O)[C@@H](O)CN1C(=O)c1ccoc1", "note": "(stereo partly shown) [9viiiF]", "values": [{"measurement": "IC50", "setting": "[2]", "result": 30, "unit": "µM"}]}
{"compound": "CCCCN1C[C@H](O)[C@@H](O)[C@H](O)[C@H]1CO", "note": "[NB-DNJ]", "values": [{"measurement": "IC50", "setting": "[3]", "result": 125, "unit": "µM"}]}
{"compound": "CCCCCCCCCN1C[C@H](O)[C@@H](O)[C@H](O)[C@H]1CO", "note": "[NN-DNJ]", "values": [{"measurement": "IC50", "setting": "[3]", "result": 10, "unit": "µM"}]}
{"compound": "CCCCCNC(=O)C1NCC2OC(C)(C)OC21", "note": "(stereo not drawn) [compound 11, 2,3-trans-2-(1-Pentylcarbamoyl)-3,4-cis-O-isopropylidene-pyrrolidine]", "values": [{"measurement": "IC50", "setting": "[1]", "result": 140, "unit": "µM"}]}
